Values after ≈ are worked out from the molar mass of the structure shown. Active and inactive are the calls of the source. No cut-off for these calls is given here.
Experiments:
Rattus norvegicus [1] = test: Anti-inflammatory activity in Wistar Rattus norvegicus (rat) assessed as inhibition of carrageenan-induced paw edema at 50 mg/kg, po measured after 3 hr; format: functional
HeLa [2] = test: Cell cycle arrest in Homo sapiens (human) HeLa cells assessed as accumulation of cells at Sub-G0 phase after 48 hr by FACS analysis (reference value: 1.15%); format: functional
HeLa [3] = test: Cell cycle arrest in Homo sapiens (human) HeLa cells assessed as accumulation of cells at G2/M phase after 48 hr by FACS analysis (reference value: 18.65%); format: functional
HeLa [4] = test: Cell cycle arrest in Homo sapiens (human) HeLa cells assessed as accumulation of cells at S phase after 48 hr by FACS analysis (reference value: 6.34%); format: functional
HeLa [5] = test: Cell cycle arrest in Homo sapiens (human) HeLa cells assessed as accumulation of cells at G0/G1 phase after 48 hr by FACS analysis (reference value: 74.27%); format: functional
MDA-MB-435 [6] = test: Cytotoxicity against Homo sapiens (human) MDA-MB-435 cells assessed as inhibition of cell viability by SRB assay; format: functional, cell-based
MDA-MB-435 [7] = test: Cytotoxicity against Homo sapiens (human) MDA-MB-435 cells assessed as inhibition of cell viability by MTT assay; format: functional, cell-based
Rattus norvegicus [8] = test: Anti-inflammatory activity in Wistar Rattus norvegicus (rat) assessed as inhibition of carrageenan-induced paw edema at 100 mg/kg/day, po measured after 3 hr; format: functional
HeLa [9] = test: Cytotoxicity against Homo sapiens (human) HeLa cells assessed as inhibition of cell viability by SRB assay; format: functional, cell-based
HeLa [10] = test: Cytotoxicity against Homo sapiens (human) HeLa cells assessed as inhibition of cell viability by MTT assay; format: functional, cell-based
[11] = Anticancer activity against Mus musculus (mouse) EAC cells xenografted in albino mouse assessed as increase in body weight at 100 mg/kg/day administered for 9 days measured on day 15 (reference value: 58.81 +/-2.67%); format: functional, Ehrlich
[12] = Anticancer activity against Mus musculus (mouse) EAC cells xenografted in albino mouse assessed as increase in body weight at 100 mg/kg/day administered for 9 days measured on day 12 (reference value: 44.42 +/-2.82%); format: functional, Ehrlich
[13] = Anticancer activity against Mus musculus (mouse) EAC cells xenografted in albino mouse assessed as increase in body weight at 100 mg/kg/day administered for 9 days measured on day 9 (reference value: 34.31 +/-1.06%); format: functional, Ehrlich
[14] = Anticancer activity against Mus musculus (mouse) EAC cells xenografted in albino mouse assessed as increase in body weight at 100 mg/kg/day administered for 9 days measured on day 6 (reference value: 16.31 +/-0.48%); format: functional, Ehrlich
[15] = Anticancer activity against Mus musculus (mouse) EAC cells xenografted in albino mouse assessed as increase in body weight at 100 mg/kg/day administered for 9 days measured on day 3 (reference value: 4.56 +/-0.52%); format: functional, Ehrlich
Ehrlich = test: Anticancer activity against Mus musculus (mouse) EAC cells xenografted in albino mouse assessed as decrease in ascites fluid volume at 50 to 100 mg/kg/day administered for 9 days; format: functional, organism-based
[16] = Anticancer activity against Mus musculus (mouse) EAC cells xenografted in albino mouse assessed as increase in median life span at 50 mg/kg/day administered for 9 days; format: functional, Ehrlich
[17] = Anticancer activity against Mus musculus (mouse) EAC cells xenografted in albino mouse assessed as median survival time at 50 mg/kg/day administered for 9 days (reference value: 17 days); format: functional, Ehrlich
[18] = Anticancer activity against Mus musculus (mouse) EAC cells xenografted in albino mouse assessed as increase in median life span at 100 mg/kg/day administered for 9 days; format: functional, Ehrlich
[19] = Anticancer activity against Mus musculus (mouse) EAC cells xenografted in albino mouse assessed as median survival time at 100 mg/kg/day administered for 9 days (reference value: 17 days); format: functional, Ehrlich
[20] = Anticancer activity against Mus musculus (mouse) EAC cells xenografted in albino mouse assessed as increase in mean life span at 50 mg/kg/day administered for 9 days; format: functional, Ehrlich
[21] = Anticancer activity against Mus musculus (mouse) EAC cells xenografted in albino mouse assessed as mean survival time at 50 mg/kg/day administered for 9 days (reference value: 17.33 +/-0.21 days); format: functional, Ehrlich
[22] = Anticancer activity against Mus musculus (mouse) EAC cells xenografted in albino mouse assessed as increase in mean life span at 100 mg/kg/day administered for 9 days; format: functional, Ehrlich
[23] = Anticancer activity against Mus musculus (mouse) EAC cells xenografted in albino mouse assessed as mean survival time at 100 mg/kg/day administered for 9 days (reference value: 17.33 +/-0.21 days); format: functional, Ehrlich
HeLa [24] = test: Cytotoxicity against Homo sapiens (human) HeLa cells assessed as morphological changes after 24 hr by microscopic analysis; format: functional, cell-based
HeLa [25] = test: Ratio of 6-aminoflavone IC50 to compound IC50 for Homo sapiens (human) HeLa cells; format: functional
MDA-MB-435 [26] = test: Ratio of 6-aminoflavone IC50 to compound IC50 for Homo sapiens (human) MDA-MB-435 cells; format: functional

## CC(C)Cc1ccc(C(C)C(=O)O)cc1 (stereo not drawn) [IBUPROFEN]
Rattus norvegicus [1]
  inhibition in vivo at 50 mg/kg: 67.1%

## COc1cccc2c1C(=O)c1c(O)c3c(c(O)c1C2=O)C[C@@](O)(C(=O)CO)C[C@@H]3O[C@H]1C[C@H](N)[C@H](O)[C@H](C)O1.Cl [DOXORUBICIN HYDROCHLORIDE]
HeLa [2]
  Activity: 2.22%
HeLa [3]
  Activity: 76.76%
HeLa [4]
  Activity: 4.01%
HeLa [5]
  Activity: 16.62%
MDA-MB-435 [6]
  IC50: 0.93 mg/L
MDA-MB-435 [7]
  IC50: 0.77 mg/L

## O=C1/C(=C\c2ccc(O)cc2)N=C(c2ccccc2)N1c1ccc2oc(-c3ccccc3)cc(=O)c2c1
Rattus norvegicus [8]
  inhibition in vivo at 100 mg/kg/day: 47.6%
MDA-MB-435 [6]
  IC50: 21.4 mg/L (≈ 44.1 µM)
HeLa [9]
  IC50: 18.9 mg/L (≈ 39 µM)
MDA-MB-435 [7]
  IC50: 18 mg/L (≈ 37.2 µM)
HeLa [10]
  IC50: 16.4 mg/L (≈ 33.8 µM)

## Nc1ccc2oc(-c3ccccc3)cc(=O)c2c1 [6-AMINOFLAVONE]
Rattus norvegicus [8]
  inhibition in vivo at 100 mg/kg/day: 24.2%
MDA-MB-435 [6]
  IC50: 78.4 mg/L (≈ 330 µM)
HeLa [9]
  IC50: 63.6 mg/L (≈ 268 µM)
MDA-MB-435 [7]
  IC50: 59.5 mg/L (≈ 251 µM)
HeLa [10]
  IC50: 55.8 mg/L (≈ 235 µM)

## O=C1/C(=C\c2ccc(Cl)c(Cl)c2)N=C(c2ccccc2)N1c1ccc2oc(-c3ccccc3)cc(=O)c2c1
Rattus norvegicus [8]
  inhibition in vivo at 100 mg/kg/day: 36.5%
MDA-MB-435 [6]
  IC50: 20.1 mg/L (≈ 37.5 µM)
HeLa [9]
  IC50: 16 mg/L (≈ 29.7 µM)
MDA-MB-435 [7]
  IC50: 16.9 mg/L (≈ 31.4 µM)
HeLa [10]
  IC50: 15.2 mg/L (≈ 28.3 µM)

## COc1ccc(/C=C2/N=C(c3ccccc3)N(c3ccc4oc(-c5ccccc5)cc(=O)c4c3)C2=O)cc1
Rattus norvegicus [8]
  inhibition in vivo at 100 mg/kg/day: 45.1%
MDA-MB-435 [6]
  IC50: 21.7 mg/L (≈ 43.6 µM)
HeLa [9]
  IC50: 17.6 mg/L (≈ 35.3 µM)
MDA-MB-435 [7]
  IC50: 18.5 mg/L (≈ 37.1 µM)
HeLa [10]
  IC50: 14.2 mg/L (≈ 28.6 µM)

## O=C1/C(=C\c2ccccc2)N=C(c2ccccc2)N1c1ccc2oc(-c3ccccc3)cc(=O)c2c1
Rattus norvegicus [8]
  inhibition in vivo at 100 mg/kg/day: 38.2%
MDA-MB-435 [6]
  IC50: 26.4 mg/L (≈ 56.3 µM)
HeLa [9]
  IC50: 20.9 mg/L (≈ 44.6 µM)
MDA-MB-435 [7]
  IC50: 24.3 mg/L (≈ 51.8 µM)
HeLa [10]
  IC50: 20.1 mg/L (≈ 42.9 µM)

## COc1ccc(/C=C2/N=C(c3ccccc3)N(c3ccc4oc(-c5ccccc5)cc(=O)c4c3)C2=O)cc1OC
Rattus norvegicus [8]
  inhibition in vivo at 100 mg/kg/day: 49.8%
[11]
  Activity: 19.99%
[12]
  Activity: 17.47%
[13]
  Activity: 13.63%
[14]
  Activity: 9.39%
[15]
  Activity: 3.58%
Ehrlich
  inhibition: Active
[16]
  Activity: 32.35%
[17]
  MST: 22.5 days
[18]
  Activity: 35.29%
[19]
  MST: 23 days
[20]
  Activity: 28.87%
[21]
  MST: 22.33 days
[22]
  Activity: 32.72%
[23]
  MST: 23 days
HeLa [2]
  Activity: 21.63%
HeLa [3]
  Activity: 28.37%
HeLa [4]
  Activity: 14.1%
HeLa [5]
  Activity: 36.8%
HeLa [24]
  Activity: Active
HeLa [25]
  Ratio IC50: 5
MDA-MB-435 [26]
  Ratio IC50: 5
MDA-MB-435 [6]
  IC50: 11.9 mg/L (≈ 22.6 µM)
HeLa [9]
  IC50: 11.1 mg/L (≈ 21 µM)
MDA-MB-435 [7]
  IC50: 10.8 mg/L (≈ 20.4 µM)
HeLa [10]
  IC50: 9.87 mg/L (≈ 18.7 µM)

From ChEMBL document CHEMBL3045147, “Synthesis and evaluation of a series of novel imidazolidinone analogues of 6-aminoflavone as anticancer and anti-inflammatory agents” (Med Chem Res, 2013)
